Data set [1] can be described thus: Plasma pharmacokinetics of betahistine and 2-PAA after oral dosing in UVN cats (LC-MS/MS, non-compartmental analysis). It is filed as in vivo, cat. Conditions: days 1 and 21. On the procedure:
The experiments were performed on nine adult male UVN cats randomly allocated into three groups of cats. Three groups of three adult male cats received 0.2 mg/kg betahistine (N = 3: cats 1–3), 2 mg/kg betahistine (N = 3: cats 4–6), or 0.2 mg/kg betahistine plus 1 mg/kg selegiline (N = 3: cats 7–9). […] The samples were frozen at −80°C until analysis. Pharmacokinetic parameters of betahistine and its major metabolite 2-PAA were calculated by applying non-compartmental analysis.
Betahistine and its internal standard, betahistine-d3, were extracted by liquid/liquid extraction from plasma under alkaline conditions toward 1-butanol/isooctane, followed by a second liquid/liquid extraction step of acidic 1-butanol/isooctane toward water. Betahistine concentration in plasma was analyzed using a validated LC-MS/MS method. In brief, an API 4000 (Applied Biosystems) mass spectrometer coupled with a Symbiosis HPLC system (Sparks, Emmen, The Netherlands) was employed to analyze betahistine. Extracts (100 μl) were injected into a XTerra RP18 150 ^* 4.6 mm, 3.5 μm column (Waters, Etten-Leur, The Netherlands) and separated at 30°C under isocratic conditions using an aqueous metanol solution containing 0.5 mM ammonium formate as mobile phase. Betahistine was quantified by a tandem mass spectrometer in positive MRM. Parent daughter transition was followed for betahistine (m/z 137 > 94). Betahistine-d3 dihydrochloride was used as internal standard. Pharmacokinetic parameters of betahistine were calculated by applying non-compartmental analysis using the validated PK software WinNonLin, version 5.23 (Pharsight Corporation, Mountain View, CA, USA).
Cmax and tmax were derived directly from the plasma concentration-time curves. Linear trapezoidal rule was used to calculate AUC0-t during the part of the curve with increasing plasma concentrations. For the descending part of the curve, the log-linear trapezoidal rule was used. Calculation of the elimination half-life (t1/2) was evaluated as ln 2/kel, with kel as the slope of the terminal phase of the plasma concentration-time curve.

For another data set, the system named is cochlear blood flow. Details: method as in PMID 25014609. To be noted: guinea pig model ref 29; cited from earlier work.

SMILES strings stand for the structures.

For the compound `O=C(O)Cc1ccccn1` [2-PAA, 2-pyridylacetic acid], the “Effect of selegiline co-administration on 2-PAA Cmax-values” in data set [1] was “strongly reduced”. Further, in the data set with cochlear blood flow, the “Increase in cochlear blood flow” value is on record as “not”.
Consider `NCCc1ccccn1` [aminoethylpyridine], for which the “Increase in cochlear blood flow” value in the data set on cochlear blood flow is “observed”.
Regarding `OCCc1ccccn1` [hydroxyethylpyridine], the “Increase in cochlear blood flow” value in the data set on cochlear blood flow is on record as “observed”.
